Test results published in paper PMC5218480 (PLoS ONE, 2017).

System: MV-4-11 cells
Test: Gene expression microarray analysis (Affymetrix PrimeView) and GSEA
Type: cell-based, human
Set-up: RFU PODN (11730768_x_at) / Fold change /veh PODN (11730768_x_at) / RFU LINC00158 (11744669_a_at) / Fold change /veh LINC00158 (11744669_a_at) / RFU DUSP10 (11751237_a_at) / Fold change /veh DUSP10 (11751237_a_at) / RFU ID3 (11757404_x_at) / Fold change /veh ID3 (11757404_x_at) / RFU PLEKHG5 (11737974_s_at) / Fold change /veh PLEKHG5 (11737974_s_at) / RFU LRRC4B (11730491_at) / Fold change /veh LRRC4B (11730491_at) / RFU GIMAP4 (11747438_a_at) / Fold change /veh GIMAP4 (11747438_a_at) / RFU KRT8 (11758183_x_at) / Fold change /veh KRT8 (11758183_x_at) / RFU CNN1 (11734310_a_at) / Fold change /veh CNN1 (11734310_a_at) / RFU VPS37D (11726825_at) / Fold change /veh VPS37D (11726825_at) / RFU C10orf10 (11716522_x_at) / Fold change /veh C10orf10 (11716522_x_at) / RFU KIR2DL2 /// KIR2DL4 /// KIR2DL5A /// KIR2DL5B /// KIR2DS1 /// KIR2DS2 /// KIR2DS3 /// KIR2DS4 /// KIR3DL3 /// KIR3DL3 /// KIR3DS1 (11738374_at) / Fold change /veh KIR2DL2 /// KIR2DL4 /// KIR2DL5A /// KIR2DL5B /// KIR2DS1 /// KIR2DS2 /// KIR2DS3 /// KIR2DS4 /// KIR3DL3 /// KIR3DL3 /// KIR3DS1 (11738374_at) / RFU C1QL1 (11718748_at) / Fold change /veh C1QL1 (11718748_at) / RFU TMPRSS4 (11747572_a_at) / Fold change /veh TMPRSS4 (11747572_a_at) / RFU HAMP (11756126_x_at) / Fold change /veh HAMP (11756126_x_at) / RFU RNFT2 (11725882_a_at) / Fold change /veh RNFT2 (11725882_a_at) / RFU NR4A2 (11747474_a_at) / Fold change /veh NR4A2 (11747474_a_at) / RFU ABCC12 (11746883_a_at) / Fold change /veh ABCC12 (11746883_a_at) / RFU TMEM136 (11760407_x_at) / Fold change /veh TMEM136 (11760407_x_at) / RFU CLDN22 /// WWC2 (11732394_at) / Fold change /veh CLDN22 /// WWC2 (11732394_at) / RFU HLA-DPB1 (11760878_x_at) / Fold change /veh HLA-DPB1 (11760878_x_at) / RFU SPINT1 (11716480_a_at) / Fold change /veh SPINT1 (11716480_a_at) / RFU GAP43 (11754022_s_at) / Fold change /veh GAP43 (11754022_s_at) / RFU A4GNT (11735810_at) / Fold change /veh A4GNT (11735810_at) / RFU PRB3 (11715151_x_at) / Fold change /veh PRB3 (11715151_x_at) / RFU TUBB4B (11761932_at) / Fold change /veh TUBB4B (11761932_at) / RFU CAPN14 (11732068_a_at) / Fold change /veh CAPN14 (11732068_a_at) / RFU TMCC2 (11721928_a_at) / Fold change /veh TMCC2 (11721928_a_at) / RFU IRGQ (11745062_a_at) / Fold change /veh IRGQ (11745062_a_at) / RFU FAM174B (11720279_a_at) / Fold change /veh FAM174B (11720279_a_at) / RFU TMPRSS4 (11748680_a_at) / Fold change /veh TMPRSS4 (11748680_a_at) / RFU FAM212B (11763350_a_at) / Fold change /veh FAM212B (11763350_a_at) / RFU PLEKHG5 (11743358_a_at) / Fold change /veh PLEKHG5 (11743358_a_at) / RFU ZSCAN30 (11745921_a_at) / Fold change /veh ZSCAN30 (11745921_a_at) / RFU CMKLR1 (11741424_a_at) / Fold change /veh CMKLR1 (11741424_a_at) / RFU LOC101060620 /// MAPK8IP1 (11723275_at) / Fold change /veh LOC101060620 /// MAPK8IP1 (11723275_at) / RFU SPTSSB (11747773_x_at) / Fold change /veh SPTSSB (11747773_x_at) / RFU PRSS12 (11739890_at) / Fold change /veh PRSS12 (11739890_at) / RFU BIN1 (11741810_x_at) / Fold change /veh BIN1 (11741810_x_at) / RFU WNT11 (11732464_a_at) / Fold change /veh WNT11 (11732464_a_at) / RFU C10orf10 (11716521_a_at) / Fold change /veh C10orf10 (11716521_a_at) / RFU C5orf56 (11738089_at) / Fold change /veh C5orf56 (11738089_at) / RFU CYB561 (11721691_x_at) / Fold change /veh CYB561 (11721691_x_at) / RFU ANKRD19P (11752326_a_at) / Fold change /veh ANKRD19P (11752326_a_at) / RFU OR2T12 /// OR2T33 /// OR2T8 (11738714_s_at) / Fold change /veh OR2T12 /// OR2T33 /// OR2T8 (11738714_s_at) / RFU VCAN (11748164_a_at) / Fold change /veh VCAN (11748164_a_at) / RFU JSRP1 (11732532_at) / Fold change /veh JSRP1 (11732532_at) / RFU KRTAP10-11 (11738290_x_at) / Fold change /veh KRTAP10-11 (11738290_x_at) / RFU MYO3A (11730013_a_at) / Fold change /veh MYO3A (11730013_a_at) / RFU EBF3 (11725865_a_at) / Fold change /veh EBF3 (11725865_a_at) / RFU CAMK2N1 (11719241_x_at) / Fold change /veh CAMK2N1 (11719241_x_at) / RFU C5orf56 (11738088_a_at) / Fold change /veh C5orf56 (11738088_a_at) / RFU OLFML3 (11715873_a_at) / Fold change /veh OLFML3 (11715873_a_at) / RFU LOC100653217 /// NTM (11731650_a_at) / Fold change /veh LOC100653217 /// NTM (11731650_a_at) / RFU MAPK11 (11762145_a_at) / Fold change /veh MAPK11 (11762145_a_at) / RFU FIZ1 (11724087_x_at) / Fold change /veh FIZ1 (11724087_x_at) / RFU OASL (11726364_x_at) / Fold change /veh OASL (11726364_x_at) / RFU SOX15 (11748057_x_at) / Fold change /veh SOX15 (11748057_x_at) / RFU CD79A (11719716_a_at) / Fold change /veh CD79A (11719716_a_at) / RFU HIST1H1D (11736915_at) / Fold change /veh HIST1H1D (11736915_at) / RFU CASKIN2 (11723855_a_at) / Fold change /veh CASKIN2 (11723855_a_at) / RFU LOC730098 (11760151_x_at) / Fold change /veh LOC730098 (11760151_x_at) / RFU OR4N2 (11742367_at) / Fold change /veh OR4N2 (11742367_at) / RFU PRRT2 (11749266_a_at) / Fold change /veh PRRT2 (11749266_a_at) / RFU SNX32 (11753110_a_at) / Fold change /veh SNX32 (11753110_a_at) / RFU CDHR5 (11726645_a_at) / Fold change /veh CDHR5 (11726645_a_at) / RFU RCAN1 (11760418_a_at) / Fold change /veh RCAN1 (11760418_a_at) / RFU FAM167A (11723789_a_at) / Fold change /veh FAM167A (11723789_a_at) / RFU FAM26E (11764081_at) / Fold change /veh FAM26E (11764081_at) / RFU ISYNA1 (11749810_s_at) / Fold change /veh ISYNA1 (11749810_s_at) / RFU ACY1 (11761880_at) / Fold change /veh ACY1 (11761880_at) / RFU 11764098_at / Fold change /veh 11764098_at / RFU SAMD14 (11745864_x_at) / Fold change /veh SAMD14 (11745864_x_at) / RFU NPB (11741838_a_at) / Fold change /veh NPB (11741838_a_at) / RFU TMPRSS6 (11731388_a_at) / Fold change /veh TMPRSS6 (11731388_a_at) / RFU KRTAP10-2 (11738614_at) / Fold change /veh KRTAP10-2 (11738614_at) / RFU ARHGAP8 /// PRR5-ARHGAP8 (11727945_x_at) / Fold change /veh ARHGAP8 /// PRR5-ARHGAP8 (11727945_x_at) / RFU KRTAP5-7 /// NADSYN1 (11734609_at) / Fold change /veh KRTAP5-7 /// NADSYN1 (11734609_at) / RFU RASL12 (11751679_a_at) / Fold change /veh RASL12 (11751679_a_at) / RFU CDKN2B (11736163_a_at) / Fold change /veh CDKN2B (11736163_a_at) / RFU PRF1 (11729649_at) / Fold change /veh PRF1 (11729649_at) / RFU, ZNF638 /// ZNF638-IT1 / Fold change vs veh, ZNF638 /// ZNF638-IT1 / RFU, PANK3 / Fold change vs veh, PANK3 / RFU, SH3YL1 / Fold change vs veh, SH3YL1 / RFU, ZEB2 / Fold change vs veh, ZEB2 / RFU, NRIP1 / Fold change vs veh, NRIP1 / RFU, PTTG1IP / Fold change vs veh, PTTG1IP / RFU, CAPN2 / Fold change vs veh, CAPN2 / RFU, MED14 / Fold change vs veh, MED14 / RFU, SNORA58 / Fold change vs veh, SNORA58 / RFU, C1orf63 / Fold change vs veh, C1orf63 / RFU, LRRFIP1 / Fold change vs veh, LRRFIP1 / RFU, NDUFAF7 / Fold change vs veh, NDUFAF7 / RFU, SLC12A2 / Fold change vs veh, SLC12A2 / RFU, IBTK / Fold change vs veh, IBTK / RFU, ESF1 / Fold change vs veh, ESF1 / Fold change vs veh, TMEM50B / RFU, TAOK1 / Fold change vs veh, TAOK1 / RFU, ACBD3 / Fold change vs veh, ACBD3 / RFU, TMA16 / Fold change vs veh, TMA16 / RFU, RWDD3 / Fold change vs veh, RWDD3 / RFU, BCAT1 / Fold change vs veh, BCAT1 / RFU, EDEM3 / Fold change vs veh, EDEM3 / RFU, TMEM33 / Fold change vs veh, TMEM33 / RFU, WDR75 / Fold change vs veh, WDR75 / RFU, AHCTF1 / Fold change vs veh, AHCTF1 / RFU, TFRC / Fold change vs veh, TFRC / RFU, ZDHHC17 / Fold change vs veh, ZDHHC17 / RFU, NOM1 / Fold change vs veh, NOM1 / RFU, ARL8B / Fold change vs veh, ARL8B / RFU, ZBTB11 / Fold change vs veh, ZBTB11 / RFU, TAMM41 / Fold change vs veh, TAMM41 / RFU, KIAA1704 /// LOC100996395 / Fold change vs veh, KIAA1704 /// LOC100996395 / RFU, ING1 / Fold change vs veh, ING1 / RFU, TRMT61B / Fold change vs veh, TRMT61B / RFU, FUBP3 / Fold change vs veh, FUBP3 / RFU, TP53 / Fold change vs veh, TP53 / RFU, TNKS2 / Fold change vs veh, TNKS2 / RFU, ZFP14 / Fold change vs veh, ZFP14 / RFU, ACTR2 / Fold change vs veh, ACTR2 / RFU, PPP3R1 / Fold change vs veh, PPP3R1 / RFU, PIK3R1 / Fold change vs veh, PIK3R1 / RFU, HNRNPA1 / Fold change vs veh, HNRNPA1 / RFU, RNF170 / Fold change vs veh, RNF170 / RFU, ZNF28 / Fold change vs veh, ZNF28 / RFU, RNGTT / Fold change vs veh, RNGTT / RFU, OGT / Fold change vs veh, OGT / RFU, BRD1 / Fold change vs veh, BRD1 / RFU, MARS / Fold change vs veh, MARS / RFU, ZNF655 / Fold change vs veh, ZNF655 / RFU, FAHD1 / Fold change vs veh, FAHD1 / RFU, BDP1 / Fold change vs veh, BDP1 / RFU, LRRCC1 / Fold change vs veh, LRRCC1 / RFU, ARID1A / Fold change vs veh, ARID1A / RFU, ZNF146 / Fold change vs veh, ZNF146 / RFU, ZNF330 / Fold change vs veh, ZNF330 / RFU, GPN3 / Fold change vs veh, GPN3 / RFU, C9orf123 / Fold change vs veh, C9orf123 / RFU, N4BP2L2 / Fold change vs veh, N4BP2L2 / RFU, ARFIP1 / Fold change vs veh, ARFIP1 / RFU, FAM179B / Fold change vs veh, FAM179B / RFU, BCL10 / Fold change vs veh, BCL10 / RFU, UHRF1BP1L / Fold change vs veh, UHRF1BP1L / RFU, BET1 / Fold change vs veh, BET1 / RFU, CNOT2 / Fold change vs veh, CNOT2 / RFU, ZNF268 / Fold change vs veh, ZNF268 / Fold change vs veh, ZNF507 / RFU, DGCR2 / Fold change vs veh, DGCR2 / RFU, WDSUB1 / Fold change vs veh, WDSUB1 / Fold change vs veh, HSP90B1 /// MIR3652 / RFU, ADSS / Fold change vs veh, ADSS / RFU, GK / Fold change vs veh, GK / RFU, ZNF148 / Fold change vs veh, ZNF148 / RFU, TAF9 / Fold change vs veh, TAF9 / RFU, SLC1A5 / Fold change vs veh, SLC1A5 / RFU, SLMO2 / Fold change vs veh, SLMO2 / RFU, ABCC4 / Fold change vs veh, ABCC4 / RFU, LOC101060439 /// RAP1B / Fold change vs veh, LOC101060439 /// RAP1B / RFU, RFX7 / Fold change vs veh, RFX7 / RFU, GTPBP10 / Fold change vs veh, GTPBP10 / RFU, CNEP1R1 / Fold change vs veh, CNEP1R1 / RFU, BIVM-ERCC5 /// ERCC5 / Fold change vs veh, BIVM-ERCC5 /// ERCC5 / RFU, ILF3 / Fold change vs veh, ILF3 / RFU 11762660_at / Fold change /veh 11762660_at / RFU VCAN (11757783_s_at) / Fold change /veh VCAN (11757783_s_at) / RFU DDX43 (11728927_at) / Fold change /veh DDX43 (11728927_at) / RFU KRT8 (11758188_x_at) / Fold change /veh KRT8 (11758188_x_at) / RFU NKD1 (11759106_at) / Fold change /veh NKD1 (11759106_at) / RFU SRD5A1 (11742802_a_at) / Fold change /veh SRD5A1 (11742802_a_at) / RFU TPSAB1 /// TPSB2 (11721975_s_at) / Fold change /veh TPSAB1 /// TPSB2 (11721975_s_at) / RFU GSTM3 (11746129_a_at) / Fold change /veh GSTM3 (11746129_a_at) / RFU IL23R (11737362_x_at) / Fold change /veh IL23R (11737362_x_at) / RFU TMEM51 (11727254_a_at) / Fold change /veh TMEM51 (11727254_a_at) / RFU PIWIL2 (11732686_x_at) / Fold change /veh PIWIL2 (11732686_x_at) / RFU ORM1 (11744905_x_at) / Fold change /veh ORM1 (11744905_x_at) / RFU CCDC152 (11743942_at) / Fold change /veh CCDC152 (11743942_at) / RFU ECM1 (11717891_a_at) / Fold change /veh ECM1 (11717891_a_at) / RFU IL23R (11748794_a_at) / Fold change /veh IL23R (11748794_a_at) / RFU TNFAIP8L3 (11732012_x_at) / Fold change /veh TNFAIP8L3 (11732012_x_at) / RFU MBOAT4 (11741988_at) / Fold change /veh MBOAT4 (11741988_at) / RFU 11764193_at / Fold change /veh 11764193_at / RFU TMEM53 (11763286_at) / Fold change /veh TMEM53 (11763286_at) / RFU MAGEB2 (11727129_at) / Fold change /veh MAGEB2 (11727129_at) / RFU TMEM200A (11744735_a_at) / Fold change /veh TMEM200A (11744735_a_at) / RFU CCDC152 (11751479_a_at) / Fold change /veh CCDC152 (11751479_a_at) / RFU FAM211A (11726209_a_at) / Fold change /veh FAM211A (11726209_a_at) / RFU RGS16 (11746705_a_at) / Fold change /veh RGS16 (11746705_a_at) / RFU VCAN (11755009_s_at) / Fold change /veh VCAN (11755009_s_at) / RFU RHOB (11743442_s_at) / Fold change /veh RHOB (11743442_s_at) / RFU RGS16 (11720943_a_at) / Fold change /veh RGS16 (11720943_a_at) / RFU RGS16 (11720944_at) / Fold change /veh RGS16 (11720944_at) / RFU, VPS4B / Fold change vs veh, VPS4B / RFU, CREB1 / Fold change vs veh, CREB1 / RFU, DNAJC13 / Fold change vs veh, DNAJC13 / RFU, GNAQ / Fold change vs veh, GNAQ / RFU, CDK5R1 / Fold change vs veh, CDK5R1 / RFU, ZRANB3 / Fold change vs veh, ZRANB3 / RFU, CUL4A / Fold change vs veh, CUL4A / RFU, CCNY / Fold change vs veh, CCNY / RFU, UFL1 / Fold change vs veh, UFL1 / RFU, COG3 / Fold change vs veh, COG3 / RFU, DIAPH2 / Fold change vs veh, DIAPH2 / RFU, SKA2 / Fold change vs veh, SKA2 / RFU, AFF3 / Fold change vs veh, AFF3 / RFU, LMF1 / Fold change vs veh, LMF1 / RFU, IPO11 / Fold change vs veh, IPO11 / RFU, DFFB / Fold change vs veh, DFFB / RFU, FOXP1 / Fold change vs veh, FOXP1 / RFU, CARD8 / Fold change vs veh, CARD8 / RFU, STRN3 / Fold change vs veh, STRN3 / RFU, ADK / Fold change vs veh, ADK / RFU, RASSF2 / Fold change vs veh, RASSF2 / RFU, WIPF1 / Fold change vs veh, WIPF1 / RFU, LARP1B / Fold change vs veh, LARP1B / RFU, RASA1 / Fold change vs veh, RASA1 / RFU, RB1 / Fold change vs veh, RB1 / RFU, PPFIA1 / Fold change vs veh, PPFIA1 / RFU, MAT2A / Fold change vs veh, MAT2A / RFU, CCT5 / Fold change vs veh, CCT5 / RFU, WDR92 / Fold change vs veh, WDR92 / RFU, CUX1 / Fold change vs veh, CUX1 / RFU, TTC7A / Fold change vs veh, TTC7A / RFU, TMEM135 / Fold change vs veh, TMEM135 / RFU, DEPTOR / Fold change vs veh, DEPTOR / RFU, CPM / Fold change vs veh, CPM / RFU, DNAJB6 / Fold change vs veh, DNAJB6 / RFU, CACNA2D3 / Fold change vs veh, CACNA2D3 / RFU, DTX4 / Fold change vs veh, DTX4 / RFU, TFCP2 / Fold change vs veh, TFCP2 / RFU, GMCL1 /// GMCL1P1 / Fold change vs veh, GMCL1 /// GMCL1P1 / RFU, AEBP2 / Fold change vs veh, AEBP2 / RFU, SNHG1 /// SNORD22 /// SNORD25 /// SNORD26 /// SNORD27 /// SNORD28 /// SNORD29 /// SNORD31 / Fold change vs veh, SNHG1 /// SNORD22 /// SNORD25 /// SNORD26 /// SNORD27 /// SNORD28 /// SNORD29 /// SNORD31 / Fold change (Aza/veh), C12orf56 (ProbeSet 11735607_a_at) / Fold change (ACY-1035/veh), C12orf56 (ProbeSet 11735607_a_at) / Fold change (Aza/veh), FGFR1OP (ProbeSet 11751329_s_at) / Fold change (ACY-1035/veh), FGFR1OP (ProbeSet 11751329_s_at) / Fold change (Aza/veh), VPS36 (ProbeSet 11739960_a_at) / Fold change (ACY-1035/veh), VPS36 (ProbeSet 11739960_a_at) / RFU SYPL1 (11715823_x_at) / Fold change /veh SYPL1 (11715823_x_at) / RFU IGFBP7 (11715501_s_at) / Fold change /veh IGFBP7 (11715501_s_at) / RFU REEP3 (11722064_at) / Fold change /veh REEP3 (11722064_at) / RFU IGLL1 (11728026_x_at) / Fold change /veh IGLL1 (11728026_x_at): dose or concentration left out as unconfirmed
Details: ProbeSet 11748670_a_at; LIST B

**Q.** How did the “RFU, PIK3R1” value turn out when `Nc1ccc(-c2cccs2)cc1NC(=O)c1ccc2c(c1)cc(C1CC1)n2CCN1CCOCC1` [ACY-1035] was run?
**A.** 70.67 RFU
